Article PMC5226491, “Efficient therapeutic delivery by a novel cell-permeant peptide derived from KDM4A protein for antitumor and antifibrosis” (Oncotarget, 2016)

Key:
Caski cells = type: cell-based, human
Experimental: (§1) Intracellular fluorescence intensity quantification was measured using Multimode Microplate Reader (Tecan 2000; Tecan, Mannedorf, Switzerland). The intracellular uptake of FITC-labeled peptide was performed as described previously. Briefly, after the incubation, cells were washed and then lysed by adding 300 μl lysing buffer (0.1 M NaOH) for 10 min, the cell lysates were harvested and centrifuged (14000 g for 5 min), the supernatant was used to measure the fluorescence intensity. The fluorescence of cellular uptake is expressed as fluorescence intensity per mg of total cellular protein. All experiments were repeated at least three times and always performed in triplicate.

[1] = system: primary cultured cells (mouse spleen lymphocytes, human peripheral blood lymphocytes, mouse primary fibroblast cells); assay: Uptake of FITC-labeled hPP10 in primary cultured cells; type: cell-based; conditions: mouse spleen lymphocytes and hPBMCs with 5% DMSO treatment
Experimental: The internalization of FITC conjugated hPP10 into cultured cells was observed using fluorescence microscopy. All types of cells were plated in 24-well-plates (Greiner, Germany) and cultivated to semi-confluence in RPMI-1640 medium in a CO2 incubator for 24 h at 37°C. Cells were washed with PBS, followed by 5.0 μM FITC-labeled peptide or fusion protein incubation with serum-free medium for 1 h at 37°C, the medium was removed, the cells were further washed with PBS 3 times, and then imaged using fluorescence microscope (Nikon, Japan) with a band-pass filter.

different cell lines [2] = assay: Uptake of FITC-labeled hPP10 in different cell lines; type: cell-based; conditions: for Effect of temperature on internalization: incubation at 4°C or 37°C, with or without DMSO
Experimental: as §1

different cell lines [3] = system: different cell lines
Experimental: Cells were seeded in 96-well plates at 24 h before treatment. […] MTT solution (5 mg/mL) was added into fresh serum medium for further 4 h incubation. DMSO was used to solubilize formazan, and the absorbance was measured using a Multiskan Spectrum plate reader (Thermo, USA).

different cell lines [4] = system: different cell lines; remark: listed apart in the source
Experimental: Membrane integrity was assessed by lactate dehydrogenase (LDH) leakage into the culture medium. […] Cell-free supernatant was obtained and transferred to another 96-well-plate; substrate mixture was added to each well for another 10 min enzymatic reaction. Absorbance was measured at 560/590 nm using a Multiskan Spectrum plate-reader (Thermo, USA).

KIPLPRFKLKCIFCKKRRKR [hPP10]
Fluorescence of cytosol compared with TAT-FITC (Caski cells): higher than TAT-FITC group
Permeation of primary cultured cells [1]: able to permeate into primary cultured cells
Permeation of cancerous or immortalized cell lines (different cell lines [2]; B16, ECV304, HepG2, T24, L929, HSC-T6, THP1, 5 μM FITC-labeled peptide, 1 h): capable of permeating a wide variety of cancerous or immortalized cell lines
Cytotoxicity, MTT assay (different cell lines [3]): minimal cytotoxicity
Membrane disturbance, LDH release (different cell lines [4]): low membrane disturbance

KIPLPRFKLKCIFCKKRRKR [hPP10-FITC, synthesized FITC-labeled hPP10 peptide]
Duration of intracellular fluorescence (Caski cells): long-lasting fluorescence than TAT-FITC
Effect of heparin on cellular uptake (different cell lines [2]; co-incubated with 0.5 U/mL heparin, different cells): greatly decreased in the presence of heparin
Effect of serum on penetrating efficiency (different cell lines [2]; different cell lines, mean ± SD for 3 samples): decreased in the presence of serum
Effect of temperature on internalization (different cell lines [2]): less energy-sensitive than that of TAT-FITC without DMSO treatment

YGRKKRRQ RRRK [TAT-FITC, FITC-labeled HIV-1 TAT peptide used for positive control, reference compound]
Effect of temperature on internalization (different cell lines [2]): energy-dependent with or without DMSO treatment
